# Reference: patent US20240165259A1, “BIOORTHOGONAL REACTION SUITABLE FOR CLICK/UNCLICK APPLICATIONS” (DANA-FARBER CANCER INSTITUTE, INC., priority 2021, published 2024)
# Tests used:
# [1] = system: SK-BR-3 HER2+ breast cancer cells; experiment: Cell viability assay (CellTiter-Glo), SK-BR-3; format: cell-based; conditions: Homo sapiens, SK-BR-3, 72 h, read-out: IC50, cell viability, without diboron
# Protocol: Cell viability assay: SK-BR-3 or MDA-MB-231 cell were seeded at a density of 5,000-10,000 cells per well in media [100 μL, RPMI (SK-BR-3) or DMEM (MDA-MB-231) supplemented with 5% heat-inactivated human serum (Sigma), penicillin (100 units/mL), streptomycin (0.1 mg/mL)] in an opaque 96-well plate. PBS (100 μL) was added to the edge wells. The cells were incubated at 37° C. under ambient atmosphere with 5% CO2. […] The plates were incubated at 37° C. with 5% CO2 for 72 h (SK-BR-3) or 96 h (MDA-MB-231). After the plates were equilibrated at room temperature, CellTiter-Glo™ 2.0 reagent (50 μL, Promega™) was added to each well and mixed gently. The plates were incubated at room temperature for 10 min to stabilize the luminescence signal and analyzed by a microplate reader (Clariostar Plus, BMG Labtech) (FIG. 48 and FIG. 49).
# [2] = system: MDA-MB-231 HER2− breast cancer cells; experiment: Cell viability assay (CellTiter-Glo), MDA-MB-231; format: cell-based; conditions: Homo sapiens, MDA-MB-231, 96 h, read-out: IC50, cell viability, without diboron
# Protocol: SK-BR-3 cells were treated with […]-100 nM trastuzumab-MMAE 61″ in the presence or absence of 50 μM B2pin2, cultured for 72 h, and assayed using the CellTiter-Glo® cell viability assay. The IC50 of the ADC was insensitive to the presence or absence of diboron and recapitulated the IC50 of MMAE alone.
# This N-oxide-based drug delivery platform provides a convenient mechanism for loading drugs onto antibodies as well as an appealing alternative to existing methods for the fast and complete release of drug molecules from their carriers.
# Cell culture: Cells were cultured in RPMI (SK-BR-3) or DMEM (MDA-MB-231) containing 10% FBS (Sigma), 100 units/mL penicillin, and 0.1 mg/mL streptomycin (Sigma) in a humidified chamber at 37° C. under an ambient atmosphere with 5% CO2. Cells were passaged and dissociated with 0.25% trypsin, 0.1% EDTA in HBSS (Corning). […]
# Cell viability assay: SK-BR-3 or MDA-MB-231 cell were seeded at a density of 5,000-10,000 cells per well in media [100 μL, RPMI (SK-BR-3) or DMEM (MDA-MB-231) supplemented with 5% heat-inactivated human serum (Sigma), penicillin (100 units/mL), streptomycin (0.1 mg/mL)] in an opaque 96-well plate. […] The plates were incubated at room temperature for 10 min to stabilize the luminescence signal and analyzed by a microplate reader (Clariostar Plus, BMG Labtech) (FIG. 48 and FIG. 49).
# [3] = system: cell surface HaloTag-GFP expressed on HEK293T cells; experiment: Live cell labeling experiment (confocal microscopy); format: cell-based; conditions: 10 μM 21′, then 10 μM 22′ for 1 hour, fixed
# Protocol: Live cell labeling by hydroamination was explored. HEK293T cells were transiently transfected with a cell surface HaloTag-GFP construct, treated with 10 μM HaloTag linker-conjugated difluoropropargyl ether 21′, washed, and incubated with 10 μM TAMRA-conjugated hydroxylamine 22′ for 1 hour. The cells were then fixed and visualized by confocal microscopy.
# Cell Culture: HEK-293T cells were cultured in Dulbecco's Modified Eagle Medium (DMEM, Corning®) containing 10% fetal bovine serum (FBS, Sigma), 100 units/mL penicillin, and 0.1 mg/mL streptomycin (Sigma) in a humidified chamber at 37° C. with 5% CO2. Cells were passaged and dissociated with 0.25% trypsin, 0.1% EDTA in HBSS (Corning®). Cells tested negative for […] by the MycoAlert PLUS Mycoplasma Detection Kit (Lonza) following the manufacturer's protocol.
# Preparation for 12-Well Plate: Coverslips (15 mm circle, thickness 0.13-0.17 mm) were acid-washed according to the Cold Spring Harbor protocol (Fischer et al., Cold Spring Harb. Protoc. 2008:pdb.prot4988 (2008)). A coverslip was added to each well in a 12-well plate followed by an aqueous solution of poly-D-lysine (0.1 mg/mL, 30-70 kDa, 800 μL). The plate was gently shaken to distribute the solution evenly, incubated at room temperature for 1 hour, washed using 1 mL of autoclaved deionized water for each well, and dried overnight. […]
# [4] = Retro-Cope elimination of linear alkynes 1′, 4′, 6′ with N,N-diethylhydroxylamine (Scheme 1); format: physicochemical; conditions: with N,N-diethylhydroxylamine (2′)
# Protocol: The impact of inductively withdrawing halogen and chalcogen substituents at the propargylic and terminal positions of the alkyne were evaluated. Retro-Cope elimination reaction between propargyl ether 1′ and N,N-diethylhydroxylamine (2′) was completed in 18 hours whereas hydroamination of terminal alkyne 4′ was incomplete, even after 10 days. […] The regioselectivities induced by the propargyl and terminal alkyne substituents appeared to be reinforcing.
# [5] = Cleavage reaction progress monitoring by 1H NMR spectroscopy; format: physicochemical; conditions: 4 mM enamine N-oxide, 10 mM B2(OH)4, 10% DMSO-d6/23% CD3OD/d-PBS, pH 7.4
# Excerpt: Diboron reagents and enamine N-oxide structures in hand, the reaction kinetics were characterized and the substrate scope for the cleavage reaction was explored. A series of chromogenic probes 32″, 38″, 39″ featuring a representative series of nitrogen, oxygen, and sulfur-bearing leaving groups were obtained. Each probe was synthesized from cyclooct-2-ynol either by Mitsunobu reaction or carbamoylation with the corresponding p-nitro(thio)phenol or p-nitrophenyl isocyanate followed by hydroamination with N,N-diethylhydroxylamine. The formation of the intended products was verified by ^1H NMR spectroscopy with caffeine as an internal standard (FIG. 29A, FIG. 33, FIG. 34). […] Over the course of 24 h, iminium ion 35″ hydrolyzed to cyclooctenone 36″ and diethylamine 37″. The other substrates reacted analogously with the same quantitative formation of iminium ion 35″ at the initial time point (FIG. 29B). […]
# The chromogenic probes that were prepared were intended for stopped flow kinetics experiments using UV-vis spectroscopy; however, the NMR studies precluded the use of one of these compounds for this purpose. […] Since a change in UV absorbance is contingent on p-nitroaniline formation, it could not be used or any analogous carbamate-based chromogenic or fluorogenic outputs as accurate proxies for product release. Instead, a fluorescence polarization assay was employed. […]
# [6] = molecular target: T1, lysozyme-TAMRA conjugate 6″conj (Gallus gallus, UniProt P00698); experiment: Screening of diboron derivatives 27″-31″ for cleavage of conjugate 6″conj; format: biochemical; conditions: PBS, 1 h
# T1 construct: purchased
# Protocol: The impact of boron ligands on the dissociation reaction was also explored. […] Lysozyme-TAMRA conjugate 6″conj was treated with 5 or 50 μM of each diboron reagent in PBS and analyzed by in-gel fluorescence after 1 h.
# A solution of diborons 27″-31″ (0.34 μL, 125 μM or 1.25 mM in DMSO; 5 or 50 μM final concentration) was added to a solution of lysozyme-fluorophore conjugate 6″conj (8 μL, 0.50 μM in PBS, pH 7.4). The reaction mixtures were incubated at room temperature in the dark. After 60 min, each reaction mixture was quenched by adding trimethylamine N-oxide (0.93 uL, 100 mM in H2O; 10 mM final concentration) and diluted with 1.6×SDS sample buffer (14.32 μL). Each solution (10 μL) was loaded onto a 15-well 12% SDS-PAGE gel. The gel was run at room temperature and at 175 V for 50 min. In-gel fluorescence was imaged with a Typhoon™ FLA 9500 (GE) at 532 nm with a photomultiplier tube (PMT) setting of 500 V (FIG. 41).
# [7] = Cross reactivity: hydroxylamine with trans-cyclooctene 19, aldehyde 20, cyclopropene 21, alkyne 22; format: physicochemical
# Protocol: The reaction mixtures were analyzed by ^1H NMR spectroscopy.
# [8] = Cross reactivity: hydroxylamine under Cu-catalyzed azide-alkyne cycloaddition (CuAAC) conditions; format: physicochemical; conditions: alkyne S17, THPTA, CuSO4, sodium ascorbate, PBS pH 7.4, 0-4 hours, HPLC
# Protocol: A solution of N,N-diethylhydroxylamine (0.8 μL, 100 mM in PBS, pH 7.4) was added to this mixture to bring the total volume to 200 μL. The solution was immediately transferred to a clean HPLC vial to monitor the reaction progress and incubated at room temperature in the dark. The reaction was analyzed by HPLC (Pursuit 200 Å C18, 4.6×150 mm, 10 μm particles, 1 mL/min flow rate, eluent: isocratic 0% MeCN/H2O+0.1% TFA (1 minute), gradient 0→100% MeCN/H2O+0.1% TFA (14 minutes), isocratic 100% MeCN/H2O+0.1% TFA (1 minute)) at each time point (0, 1, 2, and 4 hours) and quantified using its absorbance at 280 nm.
# T1 sequence (P00698 19-147): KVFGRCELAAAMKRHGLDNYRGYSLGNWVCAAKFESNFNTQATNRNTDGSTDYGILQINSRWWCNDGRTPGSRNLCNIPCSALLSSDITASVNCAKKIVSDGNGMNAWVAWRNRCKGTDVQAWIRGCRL
structure (smiles),measurement,setting,value
"CC[C@H](C)[C@@H]([C@@H](CC(=O)N1CCCC1[C@H](OC)[C@@H](C)C(=O)N[C@H](C)[C@@H](O)c1ccccc1)OC)N(C)C(=O)[C@@H](NC(=O)[C@@H](NC)C(C)C)C(C)C (stereo partly shown) [MMAE, monomethyl auristatin E]",IC50,[1],0.154 nM
same,IC50,[2],0.75 nM
"O=C(NCCOCCOCCCCCCCl)OCCOC(F)(F)C#CCl [21′, 2-((3-chloro-1,1-difluoroprop-2-yn-1-yl)oxy)ethyl (2-(2-((6-chlorohexyl)oxy)ethoxy)ethyl)carbamate]",live cell labeling (TAMRA signal),[3],localized at the cell surface and co-localized with the GFP signal of transfected cells
"OCCCCCC#CCl [6′, 7-chlorohept-6-yn-1-ol]",time to completion of retro-Cope elimination,[4],~24 h
"CC[N+]([O-])(CC)/C1=C/C(Sc2ccc([N+](=O)[O-])cc2)CCCCC1 (stereo not shown) [38″, (E)-N,N-Diethyl-3-((4-nitrophenyl)thio)cyclooct-1-en-1-amine oxide]",time to complete reduction / conversion of enamine N-oxide,[5],≤ 4 min
"OB(O)B(O)O [Tetrahydroxydiboron, tetrahydroxydiboron]",cleavage of 6″conj at 5 μM diboron reagent,[6],reach completion by 1 h
"CC[N+]([O-])(CC)/C1=C/C(Oc2ccc([N+](=O)[O-])cc2)CCCCC1 (stereo not shown) [32″, (E)-N,N-Diethyl-3-(4-nitrophenoxy)cyclooct-1-en-1-amine oxide]",time to complete reduction / conversion of enamine N-oxide,[5],≤ 4 min
"CCN(O)CC [compound 1, N,N-diethylhydroxylamine]",reactivity with strained alkenes,"[7]; 5 mM hydroxylamine with 5 mM cyclopropene 21 or trans-cyclooctene 19, d3-acetonitrile",proved unreactive
same,"cross-reactivity with 19, 20, 21 or 22","[7]; CD3CN, 1 hour, room temperature, 1H NMR",No change in the spectra was observed
same,reaction under CuAAC conditions,[8],No reaction was observed
